The values that follow are results of earlier work, collected in patent publication US20260167972A1, “AMINO ACID DERIVATIVES AS NOVEL DELIVERY AGENTS FOR FUNCTIONAL DELIVERY OF OLIGONUCLEOTIDES” (University of Rochester, priority 2022, published 2026).

“Also recorded” adds a separate entry of the source.

This data set concerns human A549 lung adenocarincoma cells. The conditions noted are these: cyclic peptide complexed with Rh-siRNA; compared with naked Rh-siRNA; cited from earlier work.

Regarding Ac-C(FKFE)2CG-NH2, the Rh-siRNA cellular/cytosolic delivery result was “improved Rh-siRNA cellular delivery compared with naked Rh-siRNA”. Consider Ac-C(WR)4CG-NH2, for which the Rh-siRNA cellular/cytosolic delivery result was “improved Rh-siRNA cellular delivery compared with naked Rh-siRNA; also recorded: significantly enhanced cytosolic delivery of Rh-siRNA”.
